What all share (format): biochemical
Assay [1] in a line: pH changes in liposomes experiencing a Cl- gradient (oligophenoxyacetamides). The conditions noted are these: NaCl-loaded liposomes in Na2SO4 buffer; for alkalinization of the vesicular compartment: equal amount (4 mol %). The method, then: FIG. 2B illustrates alkanization of the vesicular aqueous compartment upon application of compounds 1-6 to a suspension of NaCl-containing vesicles in isosmomolar Na2SO4 buffer. Concentration of compounds 1-6 in the vesicular suspension was 20 μm (4 mol %). Legend for traces denotes use of oligocompounds 1, 2, 3, 4, 5, 6.
(§1) Liposome Preparation for Fluorimetric Assays. Egg yolk L-α-phosphatidylcholine (EYPC ethanol solution, […], 79 μmol) was dissolved in a CHCl3/MeOH mixture, the solution was evaporated under reduced pressure and the resulting thin film was dried under high vacuum for 2 h. The lipid film was hydrated in 1.2 mL of phosphate buffer (10 mM sodium phosphate, pH=6.4, 75-100 mM MnX, M=N^+, K^+, X=Cl^−, SO4^2−, n=1,2) containing 10 μM HPTS (pyranine, 8-hydroxypyrene-1,3,6-trisulfonic acid trisodium salt) for 40 min. During hydration, the suspension was submitted to 5 freeze-thaw cycle (liquid nitrogen, water at rt). The large multilamellar liposome suspension (1 mL) was submitted to high-pressure extrusion at rt (21 extrusions through a 0.1 μm polycarbonate membrane afforded a suspension of LUVs with an average diameter of 100 nm). The LUV suspension was separated from extravesicular dye by size exclusion chromatography (SEC) (stationary phase: Sephadex G-10, mobile phase: phosphate buffer) and diluted with the same phosphate buffer to give a stock solution with a lipid concentration of 11 mM (assuming 100% of lipid was incorporated into liposomes).
(§2) Analysis of pH changes in the liposomes experiencing a CT gradient. a) Outwardly directed gradient of Cl:HPTS-loaded vesicles (100 μL of the stock solution), filled with a saline phosphate buffer (10 mM sodium phosphate, pH 6.4, 100 mM NaCl) were suspended in 1.9 mL of an isosmotic phosphate sulfate buffer (10 mM sodium phosphate, pH 6.0, 75 mM Na2SO4) and placed into a fluorimetric cell. The emission of HPTS at 510 nm was monitored with excitation wavelengths at 403 and 460 nm simultaneously. During the experiment, 20 μL of a 0-2 mM DMSO solution of the compound of interest was added through an injection port. Intravesicular pH values were obtained as described for pH-stat transport assays. At the end of experiment, the aqueous compartment of liposomes was equilibrated with extravesicular solution by lysis of liposomes with detergent (40 μL of 5% aqueous Triton X100). b) Inwardly directed gradient of Cl:HPTS-loaded vesicles (100 μL of the stock solution), filled with a isoosimomolar sulfate phosphate buffer (10 mM sodium phosphate, pH 6.0, 75 mM Na2SO4) were suspended in 1.9 mL of an isosmotic phosphate saline buffer (10 mM sodium phosphate, pH 6.4, 100 mM NaCl) and placed into a fluorimetric cell. Further analysis was conducted as described for the case of an outwardly directed gradient of […]. Analysis of the electrostatic potential on the surface of liposomes. LUVs (100 μL of stock solution, 100 mM KCl inside and outside or 75 mM Na2SO4 inside and outside) were suspended in 1.9 mL of 100 mM NaCl buffer containing 60 nM safranin O (a potential-sensitive dye). Safranin O emission was monitored at 580 nm with excitation at 520 nm. During the course of the experiment, 20 μL of a 0-0.12 mM DMSO solution of valinomycin or 0-2 mM of 3-8 DMSO solution was added. Experiments were completed by injection of 20 μL of 1 mM aqueous solution of the defect-inductive peptide melittin.

A short description of assay [2]: pH-stat fluorescent transport assay with oligophenoxyacetamides (HPTS-loaded liposomes). The conditions noted are these: 100 mM NaCl inside and outside. The method, then: FIGS. 1A and 1B are derived from of pH-stat fluorescent assays with oligophenoxyacetamide compounds 1-6 described herein. Suspensions of EYPC LUVs containing the pH sensitive dye pyranine (ex 405 nm and 460 nm em 510 nm) in a phosphate buffer were used (0.5 mM of lipid, 10 mM NanH3-nPO4 n=1, 2, pH 6.4 100 mM NaCl inside and outside) (A) illustrates initial pseudo-first order rate constants in the presence of 5 μm of ionophores 1-6 (1 mol % injection of 20 μl of 0.5 mM DMSO solution of 1-6 into 1.9 mL of vesicular suspension was followed by injection of 21 μl of 0.5 M NaOH and final lysis of liposomes with Triton X-100; (B) illustrates initial pseudo-first order rate constants assessed for various concentrations of oligomeric ionophores 2-6. The same experimental protocol as in (A) was used. Legend for traces denotes use of oligocompounds 2, 3, 4, 5, 6.
as §1
pH-state transport assays. Typically, 100 μL of HPTS-loaded vesicles (stock solution) was suspended in 1.9 mL of the corresponding buffer and placed into a fluorimetric cell. The emission of HPTS at 510 nm was monitored with excitation wavelengths at 403 and 460 nm simultaneously. During the experiment, 20 μL of a 0-10 mM DMSO solution of the compounds of interest was added (through an injection port), followed by injection of 21 μL of 0.5 M aqueous NaOH. […] Maximal possible changes in dye emission were obtained at the end of each experiment by lysis of the liposomes with detergent (40 μL of 5% aqueous Triton X100). The final transport trace was obtained as a ratio of the emission intensities monitored at 460 and 403 nm and normalized to 100% of transport. Pseudo-first order rate constants were calculated from slopes of the plot of In([H^+ins]−[H^+out]) versus time, here [H^+ins] and [H^+out] are the intravesicular and extravesicular proton concentrations, respectively. The [H^+out] was assumed to remain constant over the course of the experiment, while [H^+ins] values were calculated for each point from the HPTS emission intensities according to the calibration equation pH=1.1684·log(Io/Il)+6.9807, where Io is the emission intensity with excitation at 460 nm and Il is emission intensity with excitation at 403 nm. The calibration was performed by measuring the HPTS emission intensities and the pH values of a […] HPTS solution in 10 mM phosphate buffer containing 100 mM NaCl (see FIG. s3). The absolute values for rate constants varied depending on the age of the vesicular solution and the actual stock solution of liposomes used.

Assay [3] can be described thus: pH-assisted fluorimetric transport assay with calixarene amides (HPTS-loaded liposomes). The conditions noted are these: extravesicular Na, K or Cs chloride; ligand lipid ratios of up to 1:20. How it is done: The ability of 1 and 2 to mediate ion flux across a lipid bilayer was studied fluorimetrically. A solution of 1 or 2 was added to a suspension of EYPC large unilamellar vesicles (LUVs) containing the pH-sensitive dye pyranine. An NaOH solution was added to the extravesicular buffer to create a gradient of approximately one pH unit. The resulting electrostatic potential, caused by proton efflux from the liposomes, can be compensated by cation influx or anion efflux, as mediated by the exogenous ligand. Ion transport across the membrane was signaled by the increase in relative fluorescence that accompanied the rise in intravesicular pH.
Liposome Preparation. EYPC HPTS-Containing LUVs, egg yolk 1-α-phosphatidylcholine (EYPC, 60 mg, […]) was dissolved in a CHCl3MeOH mixture, the solution was evaporated under reduced pressure, and the resulting thin film was dried under high vacuum for 2 h. The lipid film was hydrated in 1.2 mL of phosphate buffer (10 mM sodium phosphage, pH=6.4, 75-100 mM MX, M=Na^+, K^+, Cs^+, X=[…], SO4^2−) containing 10 μM HPTS (pyranine 8-hydroxypyrene-1,3,6-trisulfonic acid trisodium salt) for 2 h. The LUV suspension (1 mL) was submitted to high-pressure extrusion at room temperature (2) extrusions through a 0.1 μM polycarbonate membrane afforded LUVs with a diameter of 100 nm). The LUV suspension was separated from extravesicular dye by size exclusion chromatography (SEC) stationary phase: Sephadex G-10, mobile phase:phosphate buffer) and diluted with the same phosphate buffer to give a stock solution with a lipid concentration of 11 mM (assuming 100% of lipid was incorporated into liposomes).
Fluorimetric Transport Assays. pH-Assisted Transport Assays. Typically, 100 μL of HPTS-loaded vesicles (stock solution) was suspended in 1.85 mL of the corresponding buffer and placed into a fluorimetric cell. HPTS emission at 510 nm was monitored with excitation wavelengths at 403 and 460 nm simultaneously. During the experiment, 20 μL of a 0-10 mM THF solution of the compound of interest was added through an injection port, followed by injection of 21 μL of 0.5 M aqueous NaOH. Addition of the NaOH caused a pH increase of approximately 1 pH unit in the extravesicular buffer. Maximal changes in dye emission were obtained at the end of each experiment by lysis of the liposomes with detergent (40 μL of 5% aqueous Triton x100). The final transport trace was obtained as a ratio of the emission intensities monitored at 460 and 403 nm and normalized to 100% of transport.

Assay [4] in a line: liposome potential assay with safranin O. The note with it: Na2SO4 vesicles in NaCl buffer (conditions of the trimer). The method, then:
FIG. 3 illustrates liposome potential assays. Suspension of EYPC LUVs in phosphate buffer was used (10 m M Nan H3-n PO4, n=1, 2, pH 6.4, 100 m M KCl or 75 m M Na2 H3-n PO4, n=1, 2, pH 6.4, 100 m M KCl or 75 m M NA2 SO4 inside and 100 m M NaCl, 60 nM safranin O, ex 480 nm, em 520 nm, outside). Legend for trace denotes the formation of potential in: —KCl vesicles upon application of valinmycin·Na2SO4 vesicles upon application of 3, —KCl vesicles upon application of 3, —Na2SO4 vesicles upon application of valinomycin.
as §2

On to `CCCCNC(=O)COc1ccccc1Cc1cccc(Cc2cccc(Cc3cccc(Cc4cccc(Cc5ccccc5OCC(=O)NCCCC)c4OCC(=O)NCCCC)c3OCC(=O)NCCCC)c2OCC(=O)NCCCC)c1OCC(=O)NCCCC` [hexamer 6, Hexakis-(N-butyl-2-phenoxyacetamide)], for which, in assay [1], the “alkalinization of the vesicular compartment” value (shortened to “alkalinization”) is recorded as “Alkanization of the vesicular compartment was observed”.
With `CCCCNC(=O)COc1ccccc1Cc1ccccc1OCC(=O)NCCCC` [Dimer 2, bis-(N-butyl-2-phenoxyacetamide)], the transport activity result in assay [2] (below 4 mol % (20 μm)) was “moderate transport activity”. Besides, the “alkalinization” value in assay [1] is listed as “Alkanization of the vesicular compartment was observed”.
In the case of `CNC(=O)COc1c2cccc1Cc1cccc(c1OCC(=O)NC)Cc1cccc(c1OCC(=O)NC)Cc1cccc(c1OCC(=O)NC)C2` [Calix[4]arene tetramethylamide 1, Calix[4]arene tetramethylamide], the transport activity entry in assay [3] is reported as “little transport activity”.
On to `CCCCNC(=O)COc1ccccc1Cc1cccc(Cc2cccc(Cc3ccccc3OCC(=O)NCCCC)c2OCC(=O)NCCCC)c1OCC(=O)NCCCC` [tetramer 4, Tetrakis-(N-butyl-2-phenoxyacetamide)], for which the “relative transport activity within the series 1-6” value in assay [2] is “generally more effective than pentamer 5 and hexamer 6”. In assay [1] (4 mol %), the pH gradient generated result is listed as “the same pH gradient” and the “time to reach the pH gradient” value is recorded as 4.5 minutes. Besides, in assay [1], the “relative ability to alter the pH in liposomes under a Cl− gradient” value was “less active than trimer 3”.
With `CC(C)[C@@H]1NC(=O)[C@H](C)OC(=O)[C@@H](C(C)C)NC(=O)[C@@H](C(C)C)OC(=O)[C@H](C(C)C)NC(=O)[C@H](C)OC(=O)[C@@H](C(C)C)NC(=O)[C@@H](C(C)C)OC(=O)[C@H](C(C)C)NC(=O)[C@H](C)OC(=O)[C@@H](C(C)C)NC(=O)[C@@H](C(C)C)OC1=O` [valinomycin, reference compound], in assay [4], the “ability to create a transmembrane potential” value is “cannot create a potential”.
In the case of `CCCCNC(=O)COc1ccccc1Cc1cccc(Cc2cccc(Cc3cccc(Cc4ccccc4OCC(=O)NCCCC)c3OCC(=O)NCCCC)c2OCC(=O)NCCCC)c1OCC(=O)NCCCC` [pentamer 5, Pentakis-(N-butyl-2-phenoxyacetamide)], the “alkalinization” value in assay [1] is listed as “Alkanization of the vesicular compartment was observed”.
